Measurements from ChEMBL document CHEMBL1201862, “PubChem BioAssay data set” (2004).
Active and inactive are the calls of the source.

Experiments:
[1] = Luminescence Cell-Based Dose HTS Response to Identify Inhibitors of 5'UTR Stem-Loop Driven Prion Protein mRNA Translation in H4-C Neuroglioblastoma Cells. [Related pubchem assays (depositor defined):AID1814, AID1827]; type: functional
[2] = Luminescence Cell-Based Dose Response HTS to Identify Activators of Luciferase Translation or Activity in H4-C Neuroglioblastoma Cells. [Related pubchem assays: 1829 (Project Summary), 1814 (Primary HTS)]; type: functional
[3] = luciferase reporter signal suppression in cells – H4 neuroglioma cells, luminescence, dose response (AID 1990); type: functional, cell-based
[4] = Luminescence Cell-Based Dose Response HTS to Identify Inhibitors of 5'UTR Stem-Loop Driven Prion Protein mRNA Translation in H4 Neuroglioblastoma Cells. [Related pubchem assays: 1827 (Project Summary), 1813 (Primary HTS)]; type: functional
[5] = Luminescence Cell-Based Dose Confirmation HTS to Identify Inhibitors of 5'UTR Stem-Loop Driven Alpha-Synuclein mRNA Translation in H4 Neuroglioblastoma Cells. [Related pubchem assays: 1827 (Project Summary), 1813 (Primary HTS)]; type: functional
[6] = Luminescence Cell-Based Dose Response HTS to Identify Activators of 5'UTR Stem-Loop Driven Prion Protein mRNA Translation in H4-C Neuroglioblastoma Cells. [Related pubchem assays: 1829 (Project Summary), 1814 (Primary HTS)]; type: functional
[7] = alpha-synuclein stem-loop luciferase translation blockers – H4 neuroglioma cells, luminescence, confirmation (AID 1988); type: functional, cell-based
[8] = Luminescence Cell-Based Dose Retest to Confirm Activators of 5'UTR Stem-Loop Driven Alpha-Synuclein mRNA Translation in H4 Neuroglioblastoma Cells. [Related pubchem assays (depositor defined):AID1813, AID1829]; type: functional
[9] = Luminescence Cell-Based Dose Response HTS to Identify Inhibitors of Luciferase Translation or Activity in H4-C Neuroglioblastoma Cells. [Related pubchem assays: 1813 (Primary HTS), 1827 (Project Summary)]; type: functional
[10] = HEK-293T viability loss after treatment – luminescence, T-cell screen hits, cytotoxicity control for TCR NF-kB inhibitor project, dose response (AID 489026); type: functional, cell-based;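 further: cells exposed to compound about 14 hours before the viability readout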
HEK293 [11] = assay: cells; type: functional, cell-based; details: Homo sapiens
HEK293 [12] = assay: cells; type: functional, cell-based; details: Homo sapiens; remark: listed apart in the source
[13] = target: T1, Heat shock factor protein 1 (Mus musculus, UniProt P38532); assay: decrease of HSF1-responsive luciferase luminescence – cell-based, NIH3T3, dose retest, confirmation (AID 2382); type: functional;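 further: NIH3T3 fibroblasts with HSF1-driven luciferase reporter stressed by proteasome inhibitor MG132; luminescence from HSF1-driven luciferase expression after 8 hours of MG132 stress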
T1 sequence (P38532 whole entry): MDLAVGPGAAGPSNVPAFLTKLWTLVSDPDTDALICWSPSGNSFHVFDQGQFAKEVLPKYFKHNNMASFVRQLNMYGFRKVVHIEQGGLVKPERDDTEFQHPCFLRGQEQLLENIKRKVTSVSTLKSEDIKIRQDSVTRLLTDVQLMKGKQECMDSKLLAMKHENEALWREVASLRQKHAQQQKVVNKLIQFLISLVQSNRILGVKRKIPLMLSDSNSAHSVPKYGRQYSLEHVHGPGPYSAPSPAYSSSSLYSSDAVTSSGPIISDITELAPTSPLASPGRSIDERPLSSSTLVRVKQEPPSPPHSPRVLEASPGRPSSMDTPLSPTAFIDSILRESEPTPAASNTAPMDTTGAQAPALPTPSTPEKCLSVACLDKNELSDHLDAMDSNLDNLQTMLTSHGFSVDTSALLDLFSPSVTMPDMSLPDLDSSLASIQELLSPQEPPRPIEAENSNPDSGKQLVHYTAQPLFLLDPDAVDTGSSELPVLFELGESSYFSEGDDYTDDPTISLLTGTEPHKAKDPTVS

HEK293 [14] = assay: cells; type: functional, cell-based; details: Homo sapiens; remark: listed apart in the source
HEK293 [15] = assay: NOD2 signaling inhibitors in MDP-stimulated cells, cell-based, uHTS, luminescence (AID 2001); type: functional; details: Homo sapiens
[16] = target: Nucleotide-binding oligomerization domain-containing protein 2 (Homo sapiens, UniProt Q9HC29); assay: inhibition of NOD2-driven NF-kB reporter – cell-based, luminescence, uHTS, HEK293 (AID 1566); type: functional
HEK293 [17] = assay: inhibition of NOD1-driven NF-kB reporter – cell-based, luminescence, uHTS, primary screen (AID 1578); type: functional; details: Homo sapiens
[18] = target: T2, E3 ubiquitin-protein ligase XIAP (Homo sapiens, UniProt P98170); assay: Chemical Antagonists of IAP-family anti-apoptotic proteins confirmation. [Related pubchem assays (depositor defined):AID1018, AID1513, AID1514, AID1638, AID1749, AID1750, AID488957, AID488963]
[19] = target: T2, E3 ubiquitin-protein ligase XIAP; assay: Counter Screen using XIAP-Bir3 of the Chemical Antagonists of IAP-family anti-apoptotic proteins confirmation assay. [Related pubchem assays (depositor defined):AID1018, AID1449, AID1513, AID1638, AID1749, AID1750, AID488957, AID488963]
[20] = target: Heat shock protein HSP 90-alpha (Homo sapiens, UniProt P07900); type: functional, organism-based
INS1 = assay: INS-1E survival protection against cytokine death – cell-based, luminescence, retest, dose response (AID 449756); type: functional; details: Rattus norvegicus;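 further: cell death triggered by IL-1 beta plus TNF-alpha plus IFN-gamma mixture; protective hits raise ATP signal compared with cytokine alone wells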
Streptococcus = assay: GAS UMAA2166 growth inhibition – luminescence, BacTiterGlo, counter-screen for streptokinase expression inhibitor project, dose response (AID 1915); type: functional, organism-based;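 further: potency for reduction of bacterial viability or growth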
Troponin, cardiac muscle = Troponin, cardiac muscle (Homo sapiens, UniProt P19429+P45379+P63316); assay: Fluorescence-based biochemical high throughput dose response assay for activators of the calcium sensitivity of cardiac Regulated Thin Filaments (RTF). [Related pubchem assays (depositor defined):AID493008, AID493018, AID504382, AID504383]; type: protein-complex assay
[21] = tested on: Streptococcus sp. 'group A'; assay: Streptococcus pyogenes SK(-)GAS viability under kanamycin – luminescence, BacTiterGlo, confirmation, counter-screen for streptokinase expression inhibitor project, dose response (AID 1900); type: functional, organism-based
[22] = target: Alkaline phosphatase, placental type (Homo sapiens, UniProt P05187); assay: human placental alkaline phosphatase inhibition – biochemical, luminescence, confirmation (AID 1512); type: functional
[23] = target: T3, Alkaline phosphatase, tissue-nonspecific isozyme (Homo sapiens, UniProt P05186); assay: potency against alkaline phosphatase TNAP – biochemical, luminescent, dose response, SAR follow-up (AID 1056)
T3 sequence (P05186 whole entry): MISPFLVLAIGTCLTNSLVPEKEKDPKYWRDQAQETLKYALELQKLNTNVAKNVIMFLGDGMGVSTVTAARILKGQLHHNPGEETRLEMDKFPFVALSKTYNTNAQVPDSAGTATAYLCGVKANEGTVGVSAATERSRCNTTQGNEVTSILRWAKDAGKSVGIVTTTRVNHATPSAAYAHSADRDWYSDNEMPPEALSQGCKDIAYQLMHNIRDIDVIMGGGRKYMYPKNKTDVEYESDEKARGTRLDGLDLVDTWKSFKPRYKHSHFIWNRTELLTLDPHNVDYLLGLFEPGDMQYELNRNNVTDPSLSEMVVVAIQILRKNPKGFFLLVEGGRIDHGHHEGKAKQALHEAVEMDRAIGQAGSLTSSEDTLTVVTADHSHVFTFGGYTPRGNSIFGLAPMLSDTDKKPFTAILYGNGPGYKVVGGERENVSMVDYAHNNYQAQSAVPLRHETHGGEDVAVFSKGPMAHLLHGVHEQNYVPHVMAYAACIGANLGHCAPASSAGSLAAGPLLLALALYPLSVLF

CCOC(=O)c1[nH]c(C)c(C(=O)c2cc(F)ccc2F)c1C
EC50 [1]: 241 nM (active) | EC50 [2]: 557 nM (inconclusive) | EC50 [3]: 10600 nM (active) | EC50 [4]: 11500 nM (active) | EC50 [5]: 1660 nM (active) | EC50 [6]: 241 nM (inconclusive) | EC50 [7]: 200 nM (active) | EC50 [8]: 1660 nM (inconclusive) | EC50 [9]: 557 nM (active) | IC50 [10]: > 80000 nM (inactive)

Cc1ccc(C(=O)Nc2sc(C)c(-c3ccccc3)c2C(N)=O)cc1[N+](=O)[O-]
IC50 (HEK293 [11]): < 312 nM (active) | IC50 (HEK293 [12]): > 20000 nM (inactive) | EC50 [13]: < 160 nM (active) | IC50 (HEK293 [14]): > 20000 nM (inactive) | IC50 (HEK293 [15]): > 20000 nM (inactive) | EC50 [16]: < 310 nM (inactive) | EC50 (HEK293 [17]): > 20000 nM (inactive)

O=C(O)C(c1ccc(F)cc1)N1Cc2ccccc2C1=O (stereo unspecified)
IC50 [18]: > 200000 nM (inactive) | IC50 [19]: > 200000 nM (inactive)

O=C(N/N=C/c1sc2ccccc2c1O)c1ccccc1
AC50 [20]: 1020 nM (active) | AC50 (INS1): 864 nM (active) | EC50 (Streptococcus): 10100 nM (active) | EC50 (Troponin, cardiac muscle): 3910 nM (active) | EC50 [21]: 702 nM (active)

O=C(NC1(C(F)(F)F)Oc2ccccc2O1)Sc1ccccc1
IC50 [22]: 92300 nM (active) | IC50 [23]: > 100000 nM (inactive)
